Measurements published in patent publication US6472348B1, “Pyridone derivatives and herbicides” (Kumiai Chemical Industry Co., Ltd., priority 1996, dated 2002).

How the values were obtained:
Format in all cases: in vivo
[1] = test system: wheat (Tr); test: Test Example 5: crop plant selectivity by upland field soil treatment (wheat), phytotoxicity; parameters: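 grade of crop injury; 5 = at least 90%; 4 = 70 to 90%; 3 = 50 to 70%; 2 = 30 to 50%; 1 = 10 to 30%; 0 = under 10%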; details: dose 6.3 g ai/10a, 21st day after application
Outline: (§1)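 Pre-emergence soil treatment, sand-filled pots, seeds covered with soil; greenhouse culture; visual scoring of weed control and wheat injury at day 21 post-application.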

[2] = test system: soybean (Gl); test: Test Example 6: crop plant selectivity by upland field soil treatment (soybean), phytotoxicity; parameters: scale not given here; details: dose 6.3 g ai/10a, 21st day after application
Outline: (§2)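 Greenhouse pot test with soil-applied compound after sowing soybean and weeds in sand; effects graded on day 21 after application.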

[3] = test system: slender amaranth (Am); test: Test Example 5: crop plant selectivity by upland field soil treatment (wheat), herbicidal effects; parameters: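 grade of growth control; 5 = at least 90%; 4 = 70 to 90%; 3 = 50 to 70%; 2 = 30 to 50%; 1 = 10 to 30%; 0 = under 10%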; details: dose 6.3 g ai/10a, 21st day after application
Outline: as §1

[4] = test system: green foxtail (Se); test: as above; parameters: scale not given here; details: dose 6.3 g ai/10a, 21st day after application
Outline: as §1

[5] = test system: pale smartweed (Po); test: as above; parameters: scale not given here; details: dose 6.3 g ai/10a, 21st day after application
Outline: as §1

[6] = test system: common lambsquarters (Ch); test: as above; parameters: scale not given here; details: dose 6.3 g ai/10a, 21st day after application
Outline: as §1

[7] = test system: China jute (Ab); test: as above; parameters: scale not given here; details: dose 6.3 g ai/10a, 21st day after application
Outline: as §1

[8] = test system: slender amaranth (Am); test: Test Example 6: crop plant selectivity by upland field soil treatment (soybean), herbicidal effects; parameters: scale not given here; details: dose 6.3 g ai/10a, 21st day after application
Outline: as §2

[9] = test system: green foxtail (Se); test: as above; parameters: scale not given here; details: dose 6.3 g ai/10a, 21st day after application
Outline: as §2

[10] = test system: pale smartweed (Po); test: as above; parameters: scale not given here; details: dose 6.3 g ai/10a, 21st day after application
Outline: as §2

[11] = test system: common lambsquarters (Ch); test: as above; parameters: scale not given here; details: dose 6.3 g ai/10a, 21st day after application
Outline: as §2

[12] = test system: China jute (Ab); test: as above; parameters: scale not given here; details: dose 6.3 g ai/10a, 21st day after application
Outline: as §2

[13] = test system: slender amaranth (Am); test: Test Example 4: crop plant selectivity by upland field soil treatment (cotton), herbicidal effects; parameters: scale not given here; details: dose 6.3 g ai/10 a, evaluated 21st day after application
Outline: (§3)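 Seeds of cotton and several weed species were sown in sand-filled pots and covered with soil before soil treatment with the test compound. Plants were grown in a greenhouse, and herbicidal effect and crop phytotoxicity were scored against set standards 21 days after application.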

[14] = test system: green foxtail (Se); test: as above; parameters: scale not given here; details: dose 6.3 g ai/10 a, evaluated 21st day after application
Outline: as §3

[15] = test system: pale smartweed (Po); test: as above; parameters: scale not given here; details: dose 6.3 g ai/10 a, evaluated 21st day after application
Outline: as §3

[16] = test system: common lambsquarters (Ch); test: as above; parameters: scale not given here; details: dose 6.3 g ai/10 a, evaluated 21st day after application
Outline: as §3

[17] = test system: China jute (Ab); test: as above; parameters: scale not given here; details: dose 6.3 g ai/10 a, evaluated 21st day after application
Outline: as §3

[18] = test system: cotton (Go); test: Test Example 4: crop plant selectivity by upland field soil treatment (cotton), phytotoxicity; parameters: scale not given here; details: dose 6.3 g ai/10 a, evaluated 21st day after application
Outline: as §3

[19] = test system: corn (Ze); test: Test Example 7: crop plant selectivity by upland field soil treatment (corn), phytotoxicity; parameters: scale not given here; details: dose 6.3 g ai/10a, 21st day after application
Experimental: (§4) (Test on Crop Plant Selectivity by Upland Field Soil Treatment)
(§5) In a plastic pot (surface area: 600 cm^2) filled with sand, corn (Ze), green foxtail (Se), pale smartweed (Po), slender amaranth (Am), common lambsquarters (Ch) and China jute (Ab) were sown and covered with soil. […] The plants were then cultured in a green house, and the evaluation of the herbicidal effects and phytotoxicity was conducted on the 21st day after the application in accordance with the standards as identified in Table 47.

[20] = test system: slender amaranth (Am); test: Test Example 7: crop plant selectivity by upland field soil treatment (corn), herbicidal effects; parameters: scale not given here; details: dose 6.3 g ai/10a, 21st day after application
Experimental: as §4, §5

[21] = test system: green foxtail (Se); test: as above; parameters: scale not given here; details: dose 6.3 g ai/10a, 21st day after application
Experimental: as §4, §5

[22] = test system: pale smartweed (Po); test: as above; parameters: scale not given here; details: dose 6.3 g ai/10a, 21st day after application
Experimental: as §4, §5

[23] = test system: common lambsquarters (Ch); test: as above; parameters: scale not given here; details: dose 6.3 g ai/10a, 21st day after application
Experimental: as §4, §5

[24] = test system: China jute (Ab); test: as above; parameters: scale not given here; details: dose 6.3 g ai/10a, 21st day after application
Experimental: as §4, §5

[25] = test system: slender amaranth (Am); test: Test Example 3: herbicidal effects by upland field foliage treatment; parameters: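 grade of growth control; 5 = at least 90%; 4 = 70 to 90%; 3 = 50 to 70%; 2 = 30 to 50%; 1 = 10 to 30%; 0 = under 10%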
Outline: (§6)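 Foliage-applied treatment on weeds pre-grown for 2 weeks in a greenhouse. Pots held sand (surface area 120 cm^2); seeds were sown and covered with soil. Evaluation: graded herbicidal effect 14 days post-application.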

[26] = test system: pale smartweed (Po); test: as above; parameters: scale not given here
Outline: as §6

[27] = test system: barnyardgrass (Ec); test: as above; parameters: scale not given here
Outline: as §6

[28] = test system: common lambsquarters (Ch); test: as above; parameters: scale not given here
Outline: as §6

[29] = test system: rice flatsedge (Ci); test: as above; parameters: scale not given here
Outline: as §6

[30] = test system: Diaitaria ciliaris (Di); test: as above; parameters: scale not given here
Outline: as §6

[31] = test system: monochoria (Mo); test: Test Example 1: herbicidal effects by paddy field soil treatment; details: 100 g of the active ingredient per 10 ares, 21st day after the application, index 0-5 of Table 47;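 further: grade of growth control; 5 = at least 90%; 4 = 70 to 90%; 3 = 50 to 70%; 2 = 30 to 50%; 1 = 10 to 30%; 0 = under 10%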
Outline: (§7)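 Greenhouse pot test in flooded paddy soil, dosed at 100 g a.i. per 10 ares; effect scored on day 21.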

[32] = test system: barnyardgrass (Ec); test: as above; details: 100 g of the active ingredient per 10 ares, 21st day after the application, index 0-5 of Table 47
Outline: as §7

[33] = test system: bulrush (Sc); test: as above; details: 100 g of the active ingredient per 10 ares, 21st day after the application, index 0-5 of Table 47;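 further: grade of growth control; 5 = at least 90%; 4 = 70 to 90%; 3 = 50 to 70%; 2 = 30 to 50%; 1 = 10 to 30%; 0 = under 10%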
Outline: as §7

[34] = test system: slender amaranth (Am); test: Test Example 2: herbicidal effects by upland field soil treatment; details: 100 g of the active ingredient per 10 ares;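 further: grade of growth control; 5 = at least 90%; 4 = 70 to 90%; 3 = 50 to 70%; 2 = 30 to 50%; 1 = 10 to 30%; 0 = under 10%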
From the text: (§8) (Test on Herbicidal Effects by Upland Field Soil Treatment)

[35] = test system: pale smartweed (Po); test: as above; details: 100 g of the active ingredient per 10 ares
From the text: as §8

[36] = test system: barnyardgrass (Ec); test: as above; details: 100 g of the active ingredient per 10 ares
From the text: as §8

[37] = test system: common lambsquarters (Ch); test: as above; details: 100 g of the active ingredient per 10 ares
From the text: as §8

[38] = test system: rice flatsedge (Ci); test: as above; details: 100 g of the active ingredient per 10 ares
From the text: as §8

[39] = test system: Digitaria ciliaris (Di); test: as above; details: 100 g of the active ingredient per 10 ares;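 further: grade of growth control; 5 = at least 90%; 4 = 70 to 90%; 3 = 50 to 70%; 2 = 30 to 50%; 1 = 10 to 30%; 0 = under 10%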
From the text: as §8

[40] = 100 g active ingredient per 10 ares, evaluated 14th day after treatment
[41] = evaluated on the 21st day after application
[42] = 100 g of the active ingredient per 10 ares, evaluated on the 14th day after treatment
[43] = 21st day after the application, index 0-5 of Table 47

Structure (SMILES) | Phytotoxicity Tr [1] | Phytotoxicity Gl [2] | Herbicidal effects Am [3] | Herbicidal effects Se [4] | Herbicidal effects Po [5] | Herbicidal effects Ch [6] | Herbicidal effects Ab [7] | Herbicidal effects Am [8] | Herbicidal effects Se [9] | Herbicidal effects Po [10] | Herbicidal effects Ch [11] | Herbicidal effects Ab [12] | Herbicidal effects Am [13] | Herbicidal effects Se [14] | Herbicidal effects Po [15] | Herbicidal effects Ch [16] | Herbicidal effects Ab [17] | Phytotoxicity Go [18] | Phytotoxicity Ze [19] | Herbicidal effects Am [20] | also measured
COCCOCOc1cc(-c2ccc(C(F)(F)F)n(C)c2=O)c(F)cc1Cl [Compound 1-207] | 1 | 1 | 5 | 5 | 5 | 5 | 5 | 5 | 5 | 5 | 5 | 5 | 5 | 5 | 5 | 5 | 5 | 0 | 1 | 5 | Herbicidal effects Se [21]: 5; Herbicidal effects Po [22]: 5; Herbicidal effects Ch [23]: 5; Herbicidal effects Ab [24]: 5; Herbicidal effects Am [25, 40]: 5; Herbicidal effects Po [26, 40]: 5; Herbicidal effects Ec [27, 40]: 5; Herbicidal effects Ch [28, 40]: 5; Herbicidal effects Ci [29, 40]: 5; Herbicidal effects Di [30, 40]: 5; Herbicidal effects Mo [31]: 5; Herbicidal effects Ec [32]: 5; Herbicidal effects Sc [33]: 5; Herbicidal effects Am [34, 41]: 5; Herbicidal effects Po [35, 41]: 5; Herbicidal effects Ec [36, 41]: 5; Herbicidal effects Ch [37, 41]: 5; Herbicidal effects Ci [38, 41]: 5; Herbicidal effects Di [39, 41]: 5
CSc1cc(-c2ccc(C(F)(F)F)n(C)c2=O)c(F)cc1Cl [Compound No. 1-87, 3-(4-chloro-2-fluoro-5-methylthiophenyl)-1-methyl-6-trifluoromethyl-2(1H)-pyridone] | 1 | 1 | 5 | 5 | 5 | 5 | 5 | 5 | 5 | 5 | 5 | 5 | 5 | 5 | 5 | 5 | 5 | 1 | 1 | 5 | Herbicidal effects Se [21]: 5; Herbicidal effects Po [22]: 5; Herbicidal effects Ch [23]: 5; Herbicidal effects Ab [24]: 5; Herbicidal effects Am [25, 42]: 5; Herbicidal effects Po [26, 42]: 5; Herbicidal effects Ec [27, 42]: 5; Herbicidal effects Ch [28, 42]: 5; Herbicidal effects Ci [29, 42]: 5; Herbicidal effects Di [30, 42]: 5; Herbicidal effects Mo [31]: 5; Herbicidal effects Ec [32]: 5; Herbicidal effects Sc [33]: 5; Herbicidal effects Am [34, 43]: 5; Herbicidal effects Po [35, 43]: 5; Herbicidal effects Ec [36, 43]: 5; Herbicidal effects Ch [37, 43]: 5; Herbicidal effects Ci [38, 43]: 5; Herbicidal effects Di [39, 43]: 5
COc1cc(-c2ccc(C(F)(F)F)n(C)c2=O)c(Cl)cc1Cl [Compound 1-205] | 1 | 1 | 5 | 5 | 5 | 5 | 4 | 5 | 5 | 5 | 5 | 4 | 5 | 5 | 5 | 5 | 4 | 1 | 2 | 5 | Herbicidal effects Se [21]: 5; Herbicidal effects Po [22]: 5; Herbicidal effects Ch [23]: 5; Herbicidal effects Ab [24]: 4; Herbicidal effects Am [25, 40]: 5; Herbicidal effects Po [26, 40]: 5; Herbicidal effects Ec [27, 40]: 5; Herbicidal effects Ch [28, 40]: 5; Herbicidal effects Ci [29, 40]: 5; Herbicidal effects Di [30, 40]: 5; Herbicidal effects Mo [31]: 5; Herbicidal effects Ec [32]: 5; Herbicidal effects Sc [33]: 5; Herbicidal effects Am [34, 41]: 5; Herbicidal effects Po [35, 41]: 5; Herbicidal effects Ec [36, 41]: 5; Herbicidal effects Ch [37, 41]: 5; Herbicidal effects Ci [38, 41]: 5; Herbicidal effects Di [39, 41]: 5
